Assay [1] has as its system COS cells. The experiment in a line: Enhancement of EGF-phage transduction by heat shock and/or camptothecin. It is filed as cell-based. The protocol: The effects of heat shock and another genotoxic treatment, camptothecin were tested. Camptothecin is a type I topoisomerase inhibiter that produces DNA strand breaks. Camptothecin is found to enhance transduction efficiency up to 2 fold at 0.1 μM but was inhibitory at higher concentrations (data not shown). EGF displaying phage (MG4-EGF vector) were incubated with COS cells for 24 hours at which time the cells were either not further treated, subjected to a four hour heat shock (42.5° C.), or treated with 0.1 μM camptothecin for four hours. GFP autofluorescent cells were counted at 72 hours after addition of phage.

Assay [2] relates to COS cells. In words: Transduction of COS cells by peptide display phage (second generation screen). It is filed as cell-based. Particulars: overnight incubation, GFP cells at 72 hours, FL5 versus FN5A or FN5B, FIG. 5. The protocol:
Oligonucleotides encoding the 3 peptides are inserted into the MEGFP vector as fusions to the pIII coat protein. The resulting phage are used to transfect COS cells. Phage are added to cells and incubated overnight at 37° C. in medium with 10% fetal calf serum. The cells are washed to remove unbound phage and returned to the incubator. Transduction is assessed by counting GFP expressing autofluorescent cells at 72 hours after the addition of phage.

For the compound `CC[C@@]1(O)C(=O)OCc2c1cc1n(c2=O)Cc2cc3ccccc3nc2-1` [Camptothecin], in the assay on COS cells [1] (EGF phage 24 hours, then 0.1 μM camptothecin four hours, GFP cells at 72 hours, FIG. 14), the “enhancement of targeted phage mediated transduction by camptothecin” value is about 2 fold. In addition, in the assay with COS cells [1] (FIG. 14), the “effect of combined heat shock and camptothecin over either treatment alone” value is reported as “modest synergistic increase”. Further, the “enhancement of transduction efficiency” value in the assay on COS cells [1] (camptothecin 0.1 μM, data not shown) is listed as “up to 2 fold”. The “effect on transduction at higher concentrations” value in the assay on COS cells [1] (concentrations higher than 0.1 μM, data not shown) is “inhibitory”.
As for FVPDPYRKSR [FL5], the “transduction efficiency compared among peptide display phage” value with COS cells [2] is “greater transduction efficiency”.

(Values after US6723512B2, “METHODS USING GENETIC PACKAGE DISPLAY FOR DETECTING AND IDENTIFYING PROTEIN-PROTEIN INTERACTIONS THAT FACILITATE INTERNALIZATION AND TRANSGENE EXPRESSION AND CELLS OR TISSUES COMPETENT FOR THE SAME AND METHODS FOR EVOLVING GENE DELIVERY VECTORS” (priority 1997, dated 2004).)
